Test results reported in patent US11667602B2, “Compounds and their use” (AstraZeneca AB, priority 2020, dated 2023).
≈ marks a conversion by molar mass, not a printed value.

Experiments:
[1] = Human Liver Microsomal Stability (Test C); format: in vitro ADME; settings: for microsomal CLint: human, liver microsomes
Outline: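 CLint (μl/min/mg protein) derived from compound depletion in human liver microsomes following a published standardized early-DMPK protocol; replicate determinations given as arithmetic mean.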

[2] = Human Hepatocyte Stability (Test D); format: in vitro ADME; settings: geometric mean if run multiple times; for hepatocyte CLint at 1 µM: human, cryopreserved pooled human hepatocytes (LiverPool 10-Donor)
Protocol: Human Hepatocyte Stability (Test D)
The metabolic stability of compounds in human hepatocytes was assessed using the following protocol:
1. Prepare 10 mM stock solutions of compound and control compounds in appropriate solvent (DMSO). Place incubation medium (L-15 Medium) in a 37° C. water bath, and allow warming for at least 15 minutes prior to use.
2. Add 80 μL of acetonitrile to each well of the 96-well deep well plate (“Quenching plate”).
3. In a new 96-well plate, dilute the 10 mM test compounds and the control compounds to 100 μM by combining 198 μL of acetonitrile and 2 μL of 10 mM stock solution.
4. Remove a vial of cryopreserved (less than −150° C.) human hepatocytes (LiverPool™ 10-Donor Human hepatocytes obtained from Bioreclamation IVT (Product No. S01205)) from storage, ensuring that vials remain at cryogenic temperatures until thawing process ensues. As quickly as possible, thaw the cells by placing the vial in a 37° C. water bath and gently shaking the vials. Vials should remain in water bath until all ice crystals have dissolved and are no longer visible. After thawing is complete, spray vial with 70% ethanol, transfer the vial to a bio-safety cabinet.
5. Open the vial and pour the contents into the 50 mL conical tube containing thawing medium. Place the 50 mL conical tube into a centrifuge and spin at 100 g for 10 minutes (room temperature).
6. Using Cellometer® Vision, count cells and determine the viable cell density. Cells with poor viability (<80% viability) are not acceptable for use.
7. Transfer 247.5 μL of hepatocytes into each well of a 96-well cell incubation plate. Place the plate on Eppendorf Thermomixer Comfort plate shaker to allow the hepatocytes to warm for 10 minutes.
8. Add 2.5 μL of 100 μM test compound or control compounds into an incubation well containing cells to initiate the reaction.
9. Incubate the plate at 37° C. and 900 rpm on an Eppendorf Thermomixer Comfort plate shaker.
10. Centrifuge the quenching plates for 20 minutes at 4,000 rpm. Transfer 30 μL of supernatant of each compound into a 96-well analysis plate. 4 compounds are pooled together into one cassette. Then dilute the pooled sample by adding of 180 μl of pure water. All incubations are performed in singlicate.
All calculations were carried out using Microsoft Excel. Peak areas were determined from extracted ion chromatograms. In vitro intrinsic clearance (in vitro Clint, in μL/min/10^6 cells) of parent compound was determined by regression analysis of the Ln percent parent disappearance vs. time curve. The in vitro intrinsic clearance (in vitro Clint, in μL/min/10^6 cells) reported in Table 36, and was determined from the slope value using the following equation: in vitro Clint=kV/N
V=incubation volume (0.25 mL);
N=number of hepatocytes per well (0.25×10^6 cells)
Where the assay was run multiple times for the same compound, the geometric mean is reported.

[3] = Rat Hepatocyte Stability (Test E); format: in vitro ADME; settings: geometric mean if run multiple times; for hepatocyte CLint: rat, hepatocytes
Outline: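 Intrinsic clearance in rat hepatocytes, expressed as μl/min/10^6 cells, following the literature integrated DMPK panel method. Repeat determinations combined as geometric mean.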

[4] = Solubility (Test F); format: physicochemical; settings: arithmetic mean if run multiple times
Protocol: The assay was conducted according to the Solubility Assay described in pages 164-167 of Wernevik, J. et al., “A Fully Integrated Assay Panel for Early Drug Metabolism and Pharmacokinetics Profiling”, Assay and Drug Development Technologies, 2020, 18(4), 157-179. Data are reported in Table 36 as solubility ([…]. Where the assay was run multiple times for the same compound, the arithmetic mean is reported.

[5] = molecular target: T1, human RXFP1 (Homo sapiens, UniProt Q9HBX9); test: RXFP1 Hu cAMP (Test A); format: cell-based; design: expressed in transfected cells; host or cells: Jump-In T-REx CHO-K1 cells (ThermoFisher), induced with 10 ng/ml doxycycline for 24 h; settings: RXFP1 Hu cAMP; for EC50: read-out: Test A EC50
T1 sequence (Q9HBX9 1-757): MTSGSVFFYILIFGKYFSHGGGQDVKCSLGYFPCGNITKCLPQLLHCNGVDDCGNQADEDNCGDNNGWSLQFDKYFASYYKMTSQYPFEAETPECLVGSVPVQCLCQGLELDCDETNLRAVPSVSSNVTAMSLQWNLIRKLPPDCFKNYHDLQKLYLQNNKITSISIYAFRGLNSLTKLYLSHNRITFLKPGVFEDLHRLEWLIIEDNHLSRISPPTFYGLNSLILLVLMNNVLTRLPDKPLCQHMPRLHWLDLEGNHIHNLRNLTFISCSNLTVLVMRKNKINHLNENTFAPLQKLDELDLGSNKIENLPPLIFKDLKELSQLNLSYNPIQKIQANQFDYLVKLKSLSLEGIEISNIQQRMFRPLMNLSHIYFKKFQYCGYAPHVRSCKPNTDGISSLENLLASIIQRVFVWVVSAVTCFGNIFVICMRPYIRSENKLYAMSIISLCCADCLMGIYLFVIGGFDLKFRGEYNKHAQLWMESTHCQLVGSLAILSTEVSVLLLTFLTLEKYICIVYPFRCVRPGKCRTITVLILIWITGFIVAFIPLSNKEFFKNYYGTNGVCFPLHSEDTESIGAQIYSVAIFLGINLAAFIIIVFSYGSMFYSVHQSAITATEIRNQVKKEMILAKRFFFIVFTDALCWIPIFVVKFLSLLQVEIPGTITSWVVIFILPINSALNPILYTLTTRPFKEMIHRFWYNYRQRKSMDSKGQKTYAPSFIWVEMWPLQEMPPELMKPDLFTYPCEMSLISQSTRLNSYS
Outline: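 CHO-K1 (Jump-In T-REx), RXFP1 induced w/ 10 ng/ml doxycycline 24 h, cryopreserved. 0.5 mM IBMX final. cAMP by HTRF, 2 h RT, std curve.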

[6] = Human Plasma Protein Binding (Test B); format: in vitro ADME; settings: fraction unbound (fu)
Outline: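 Values given as % free (fu) in human plasma, using the method of Wernevik et al. (2020). For compounds tested more than once, the arithmetic mean is given.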

| microsomal CLint [1] [µL/min/mg] | hepatocyte CLint at 1 µM [2] [µL/min/1e6 cells] | hepatocyte CLint [3] [µL/min/1e6 cells] | solubility [4] [µM] | Test A Sinf [5] [%] | EC50 [5] [nM] | Test C Human Liver Microsomal Stability Clint ([1]; human liver microsomes) [µL/min/mg] | Test D Human Hepatocyte Stability Clint ([2]; human hepatocytes) [μL/min/10^6 cells] | Test E Rat Hepatocyte Stability Clint ([3]; rat hepatocytes) [μL/min/10^6 cells] | Test B Human Plasma Protein Binding (% free) [6] [% free] | SMILES |
| --- | --- | --- | --- | --- | --- | --- | --- | --- | --- | --- |
| 14 | 9.5 | 12 | 190 (≈ 124 µg/mL) | 104 | 50 | – | – | – | – | COc1cc(F)c(-c2ccc(C(=O)O)c(O)c2)cc1C(=O)N[C@@H]1[C@H]2CC[C@H](C2)[C@@H]1C(=O)Nc1cccc(S(=O)(=O)C(F)(F)F)c1 [Example 247] |
| 27 | 8.4 | 41 | 21 (≈ 14.8 µg/mL) | 118 | 390 | – | – | – | – | COc1cc(F)c(-c2cccc(C[C@@H](C(=O)O)N(C)C)c2)cc1C(=O)N[C@@H]1[C@H]2CC[C@H](C2)[C@@H]1C(=O)Nc1cccc(S(=O)(=O)C(F)(F)F)c1 (racemic) [Example 293] |
| 12 | 6.6 | 77 | 920 (≈ 475 µg/mL) | 99 | 1200 | – | – | – | – | COc1cc(F)c(O[C@H]2CC[C@@H](C(=O)O)CC2)cc1C(=O)N[C@@H]1[C@H]2CC[C@H](C2)[C@@H]1C(=O)NCC1(C)CC1 [Example 198] |
| 45 | 12 | 28 | 1000 (≈ 533 µg/mL) | 106 | 1400 | – | – | – | – | CCC(CC)CNC(=O)[C@H]1[C@@H]2CC[C@@H](C2)[C@H]1NC(=O)c1cc(O[C@H]2CC[C@@H](C(=O)O)CC2)c(F)cc1OC [Example 197, (1S,4s)-4-(5-(((1S,2R,3S,4R)-3-((2-ethylbutyl)carbamoyl)bicyclo[2.2.1]heptan-2-yl)carbamoyl)-2-fluoro-4-methoxyphenoxy)cyclohexane-1-carboxylic acid] |
| 42 | 13 | 27 | 890 (≈ 592 µg/mL) | 102 | 140 | – | – | – | – | COc1cc(F)c(-c2cnc(CCC(=O)O)cn2)cc1C(=O)N[C@@H]1[C@H]2CC[C@H](C2)[C@@H]1C(=O)Nc1cccc(S(=O)(=O)C(F)(F)F)c1 [Example 238] |
| 26 | 2.6 | 20 | 1000 (≈ 533 µg/mL) | 100 | 21000 | – | – | – | – | COc1cc(F)c(O[C@H]2CC[C@@H](C(=O)O)CC2)cc1C(=O)N[C@@H]1[C@H]2CC[C@H](C2)[C@@H]1C(=O)N[C@@H](C)C(C)(C)C [Example 199] |
| 12 | 4.2 | 25 | 880 (≈ 606 µg/mL) | 104 | – | – | – | – | – | COc1cc(F)c(O[C@H]2CC[C@@](C)(C(=O)O)CC2)cc1C(=O)NC1C(C(=O)Nc2cccc(S(=O)(=O)C(F)(F)F)c2)CC2OCOC21 (single isomer, unassigned) [Example 512, (1R,4s)-4-(2-Fluoro-4-methoxy-5-(((3aR*,4S*,5S*,6aS*)-5-((3-((trifluoromethyl)sulfonyl)phenyl)carbamoyl)tetrahydro-4H-cyclopenta[d][1,3]dioxol-4-yl)carbamoyl)phenoxy)-1-methylcyclohexane-1-carboxylic acid] |
| < 3 | 2.6 | 18 | > 1000 | 105 | 270 | – | – | – | – | COc1cc(F)c(O[C@H]2CC[C@@](C)(C(=O)O)CC2)cc1C(=O)N[C@@H]1CCC[C@@H]1C(=O)NCC1(C)CCC1 [Example 67] |
| 42 | 49 | 14 | 35 (≈ 23.9 µg/mL) | 99 | > 150 | – | – | – | – | COc1cc(F)c(O[C@H]2CC[C@@](C)(C(=O)O)CC2)cc1C(=O)N[C@H]1[C@@H]2CC[C@@H](C2)[C@H]1C(=O)Nc1ccc(F)c(S(F)(F)(F)(F)F)c1 [Example 206, (1R,4s)-4-(2-Fluoro-5-(((1R,2S,3R,4S)-3-((4-fluoro-3-(pentafluoro-λ6-sulfaneyl)phenyl)carbamoyl)bicyclo[2.2.1]heptan-2-yl)carbamoyl)-4-methoxyphenoxy)-1-methylcyclohexane-1-carboxylic acid] |
| – | – | – | 1000 (≈ 519 µg/mL) | 118 | – | 19 | 5 | 34 | – | CCC(C)CNC(=O)C1C2CCC(C2)C1NC(=O)c1cc(OC2CCC(C(=O)O)CC2)c(F)cc1OC (single isomer, unassigned) [Example 203, (1S,4s)-4-(2-Fluoro-4-methoxy-5-(((1S,2R,3S,4R)-3-(((R*)-2-methylbutyl)carbamoyl)bicyclo[2.2.1]heptan-2-yl)carbamoyl)phenoxy)cyclohexane-1-carboxylic acid] |
| 74 | – | 36 | 300 (≈ 196 µg/mL) | 97 | 120 | – | – | – | 0.76 | COc1cc(C)c(O[C@H]2CC[C@@H](C(=O)O)CC2)cc1C(=O)N[C@@H]1[C@H]2CC[C@H](C2)[C@@H]1C(=O)Nc1cccc(S(=O)(=O)C(F)(F)F)c1 [Example 465, (1S,4s)-4-(4-Methoxy-2-methyl-5-(((1S,2R,3S,4R)-3-((3-((trifluoromethyl)sulfonyl)phenyl)carbamoyl)bicyclo[2.2.1]heptan-2-yl)carbamoyl)phenoxy)cyclohexane-1-carboxylic acid] |
| 29 | – | > 300 | 990 (≈ 622 µg/mL) | 88 | 130 | – | – | – | 0.40 | COc1cc(F)c(O[C@H]2CC[C@@H](C(=O)O)CC2)cc1C(=O)N[C@@H]1[C@H]2CC[C@H](C2)[C@@H]1C(=O)Nc1ccc(C#N)c(Br)c1 [Example 27, (1S,4s)-4-(5-(((1S,2R,3S,4R)-3-((3-Bromo-4-cyanophenyl)carbamoyl)bicyclo[2.2.1]heptan-2-yl)carbamoyl)-2-fluoro-4-methoxyphenoxy)cyclohexane-1-carboxylic acid] |
